Results on 90 molecules are retold here after PubChem BioAssay AID463204 (Broad Institute, 2010).

Active and inactive are the calls of the source.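 The calls were made as follows: active = AC50 no more than ten times the top concentration tested, that is within one log above it; inconclusive = flat curve fit with activity between 30% and 70%, or invalid poor fit; inactive = AC50 beyond ten times the top tested dose.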

In the experiment the test system is S. cerevisiae Mot1-301 ts growth rescue, BacTiter-Glo ATP luminescence. Nature of the experiment: restored Mot1-301 yeast growth at 38.5C – whole organism, S. cerevisiae, Mot1-301 ts mutant, luminescence, dose retest, SUMOylation pathway inhibitor project, confirmation (AID 463204).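 Also: growth at restrictive 38.5 degrees C of Mot1-301 OY566 strain; actives raise luminescence by restoring growth of the ts mutant at high temperature.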
Usually AC50 stands for the concentration giving half of the maximal activity seen. Turning to `COc1ccc(-c2nc3c(c(SCC(=O)N4CCOCC4)n2)Cc2c(CO)cnc(C)c2O3)cc1`, the AC50 was > 42 µM (inactive).
To `CC1=CC2=NC(=O)/C(=C\c3cc(C)n(-c4ccccc4)c3C)C(=N)N2O1` belongs > 42 µM (inactive).
Next, `COC(=O)c1ccc(N2C(=O)CC(NCc3ccccc3)C2=O)cc1` (stereo not given): > 42 µM (inactive).
Next, `CCOc1ccc(N2CC(C(=O)OC)CC2=O)cc1` (stereo not given): > 42 µM (inactive); `O=C1OC(Cc2ccccn2)C(O)=C1C1=NCCCN1` (stereo not given): > 42 µM (inactive).
Turning to `CCOC(=O)c1c(C)[nH]c(O)c1C=Nc1ccccc1`, the AC50 is > 42 µM (inactive).
As for `COc1ccc(NC(=O)C2CCCN2S(=O)(=O)c2cccc3cccnc23)cc1OC` (stereo not given), the AC50 is > 42 µM (inactive).
`CN(CC(=O)Nc1ccccc1Sc1ccccc1)Cc1nc2ccccc2c(=O)[nH]1`: the AC50 was > 42 µM (inactive).
Next, `COc1ccc(C2C3=C(CC(C)(C)CC3=O)Nc3n[nH]c(C)c32)cc1` (stereo not given): > 42 µM (inactive).
To `CS(=O)(=O)N1CCCC(C(=O)NCc2ccco2)C1` (stereo not given) belongs > 42 µM (inactive).
As for `CC1CC(c2ccccc2)NS(=O)(=O)O1` (stereo not given), the AC50 is > 42 µM (inactive).
Next, `COc1ccc(C2C(C(C)=O)=C(O)C(=O)N2CCO)c(OC)c1` (stereo not given): > 42 µM (inactive); `CCc1ccc(S(=O)(=O)NCc2cccnc2)cc1`: > 42 µM (inactive).
For the molecule `COC(=O)C1C(c2ccc(OC)c(OC)c2)NC(c2ccc(OC)c(OC)c2)C(C(=O)OC)S1(=O)=O` (stereo not given), the AC50 was > 42 µM (inactive).
To `COC(=O)c1ccc(Cl)c(NC(=O)CN(c2ccc(OC)c(OC)c2)S(C)(=O)=O)c1` belongs > 42 µM (inactive); to `O=c1c2ccccc2ncn1Cc1ccc2c(c1)OCO2`, > 42 µM (inactive); to `CCN(CC)C(=O)Cn1cc(S(=O)(=O)CC(=O)NCCc2ccc(OC)c(OC)c2)c2ccccc21`, > 42 µM (inactive).
To `Nc1ccc(C2(c3ccc(N)cc3)OC(=O)c3ccccc32)cc1` belongs > 42 µM (inactive); to `COc1ccc(N(C(=O)c2ccco2)C(C(=O)NC2CCCCC2)c2ccccc2)cc1` (stereo not given), > 42 µM (inactive).
On to `CS(=O)(=O)N(CC(=O)N1CCCC1)c1cccc(Cl)c1Cl`, for which the AC50 was > 42 µM (inactive).
Consider `C=CCNc1nnc(SC2CC(=O)N(c3ccc(OCCC)cc3)C2=O)s1` (stereo not given), for which the AC50 was 4.49 µM.
To `O=[N+]([O-])c1nn(-c2ccc(Cl)cc2)n(O)c1=NCc1ccccc1Cl` belongs 24 µM.
As to `O=C(Nc1cnn(Cc2ccc(Cl)cc2)c1)c1ccc([N+](=O)[O-])cc1`, the AC50 was > 42 µM (inactive).
Next, `O=C(NCc1cccnc1)Nc1ccccc1`: > 42 µM (inactive); `CCOC(=O)c1ccc(NC(=S)NCCCN2CCOCC2)cc1`: > 110 µM (inactive).
To `Cc1cc(C(=O)COc2cccc3cccnc23)c(C)n1C` belongs > 42 µM (inactive).
Next, `CCCCNC(=O)C1C2C=CC3(CN(Cc4ccc(C)cc4)C(=O)C13)O2` (stereo not given): > 42 µM (inactive).
For `O=C(NCC1CCCO1)c1nn2c(C(F)(F)F)cc(-c3cc(Br)cs3)nc2c1Br` (stereo not given), the AC50 is > 42 µM (inactive).
`Cc1ccc(C(=O)NCC(=O)Nc2ccc3c(c2)OCCO3)cc1`: the AC50 is > 21 µM (inactive).
Turning to `O=C(Nc1cccc(Cl)c1)OCc1cncs1`, the AC50 was > 42 µM (inactive).
As for `CCOC(=O)C1(c2ccccc2)CCN(CCC(=O)Nc2ccccc2OC)CC1`, the AC50 is > 42 µM (inactive).
Next, `CC1(C)C(C=C(Cl)Cl)C1C(=O)OCc1cccc(Oc2ccccc2)c1` (stereo not given): > 42 µM (inactive); `O=C(/C=C/NNC(=O)c1ccc(Br)cc1)c1ccccc1`: > 42 µM (inactive); `O=S(=O)(Nn1c(O)c(C=C2N=c3ccccc3=N2)sc1=S)c1ccccc1`: > 42 µM (inactive).
On to `COC(=O)CNC(=O)CSc1ccccn1`, for which the AC50 is > 42 µM (inactive).
To `CCN(CC)CCCN1C(=O)C(=O)/C(=C(/O)c2ccccc2)C1c1cc(OC)ccc1OC` (stereo not given) belongs > 42 µM (inactive).
To `O=C(Nc1ccc(F)cc1F)N1CCCN(c2ccc(C(F)(F)F)cn2)CC1` belongs > 42 µM (inactive); to `CCCCC(=O)NC(=S)Nc1cccc(C(=O)O)c1`, > 42 µM (inactive).
Turning to `Cc1cc2ncc(C(=O)N=CN(C)C)cn2n1`, the AC50 was > 42 µM (inactive).
With `Cc1ccnc(NC(=O)CC(c2ccccc2)c2ccccc2)n1`, the AC50 was 29.8 µM.
To `CN/C(=C/[N+](=O)[O-])NCCSCc1ccc(CN(C)C)o1` belongs > 42 µM (inactive); to `O=C1CN(C(=O)COC(=O)CCNS(=O)(=O)c2ccc(Cl)cc2)c2ccccc2N1`, > 42 µM (inactive).
Next, `CC(C)c1cc(N2CCOCC2)n2ncc(-c3ccccc3)c2n1`: > 42 µM (inactive); `C/C(=N\N1CCN(Cc2ccccc2Cl)CC1)c1ccc([N+](=O)[O-])cc1`: > 42 µM (inactive).
Next, `O=C(N/N=C/c1cccs1)c1cncc(Br)c1`: > 42 µM (inactive).
In the case of `O=C(O)/C=C\C(=O)NC1CCCCC1`, the AC50 was > 42 µM (inactive).
Next, `CCOc1ccccc1Nc1nnc(SCc2nnc(-c3cc(OC)c(OC)c(OC)c3)o2)s1`: > 42 µM (inactive); `Cc1nc(NC(=O)CSc2nc(N)cc(N)n2)sc1C`: > 42 µM (inactive).
To `CCOC(=O)C1ON2CCCCC2C1(O)C(F)(F)F` (stereo not given) belongs > 42 µM (inactive); to `CSc1nncc(/C(C)=N\Nc2cccc(C)c2)n1`, > 42 µM (inactive).
Next, `O=C1CCN(Cc2ccccc2)CCN1CCOc1ccccc1`: > 42 µM (inactive); `O=S(=O)(c1cccc(-c2nnco2)c1)N1CCCC1`: > 42 µM (inactive).
Turning to `O=C(CCC(=O)OC(C(=O)c1ccccc1)c1ccccc1)Nc1ccccc1` (stereo not given), the AC50 is > 21 µM (inactive).
Take `Cc1cccc(OCCN2CSC(=S)N(C)C2)c1`: the AC50 was 3.7 µM.
For the molecule `Oc1ccc(C2=CSC3=NCCN23)cc1O`, the AC50 was > 42 µM (inactive).
For the molecule `COc1ccc(N2CCN(C(=O)Cn3nnc(-c4ccc(OC)c(OC)c4)n3)CC2)cc1`, the AC50 is > 42 µM (inactive).
To `CCCNC(=O)c1cc2c(C(F)(F)F)nn(C)c2s1` belongs > 42 µM (inactive); to `Cc1ccc(S(=O)(=O)Cc2ccc(C(=O)N3CCN(c4ccccn4)CC3)o2)cc1`, > 42 µM (inactive); to `CCOC(=O)N1CCN(c2cc3[nH]c(=S)[nH]c3cc2F)CC1`, > 42 µM (inactive).
Next, `Cn1nc(C(=O)NCCc2ccc(Cl)cc2)c2c1-c1ccccc1S(=O)(=O)C2`: > 42 µM (inactive).
Consider `O=C(Nc1cccc(C(=O)Nc2ccc(F)cc2F)c1)c1ccccc1`, for which the AC50 is > 42 µM (inactive).
To `Cc1ccc(SCCC(=O)Nc2ccc(OCc3ccccc3)cc2)cc1` belongs > 42 µM (inactive); to `CC(NC(=O)c1ccc(Cl)cc1)C(=O)N1CCCCC1` (stereo not given), > 42 µM (inactive); to `CCOc1ccc(-c2c(C(=O)N/N=C/c3ccncc3)nnn2-c2nonc2N)cc1`, > 42 µM (inactive).
To `CCOP(=O)(Cc1cc(C(=O)CC)c(C)o1)OCC` belongs > 42 µM (inactive); to `COc1ccccc1C(=O)NC(=O)COC(=O)Cc1ccccc1[N+](=O)[O-]`, > 42 µM (inactive).
To `NNC(=O)c1[nH]c2ccccc2c1-c1ccccc1` belongs > 42 µM (inactive); to `CCOC(=O)c1c(CN2CCCCC2)n(C)c2cc(Br)c(O)c(CN(C)C)c12`, > 42 µM (inactive).
Turning to `O=S(=O)(NCc1ccccc1)c1ccc(S(=O)(=O)N(Cc2ccccn2)Cc2ccco2)cc1`, the AC50 was > 42 µM (inactive).
Next, `CCN(CC)c1ncnc2ccc(Br)cc12`: > 42 µM (inactive).
Next, `CCC(=O)c1c[nH]c(C(=O)NCCCn2ccnc2)c1`: > 42 µM (inactive); `CCCSc1nnc(NC(=O)CSc2sc3c(O)cc(=O)[nH]c3c2C#N)s1`: > 42 µM (inactive); `CCc1ccc(NC(=O)N2CCC(c3ccccc3)C2)cc1` (stereo not given): > 42 µM (inactive).
`CCCC(=O)Oc1c(S(=O)(=O)c2ccc(C)cc2)c(C)nn1C(C)(C)C`: the AC50 was > 42 µM (inactive).
On to `O=C1CN(C(=O)c2ccccc2F)C(c2ccccc2)c2cc(Cl)ccc2N1` (stereo not given), for which the AC50 is 1.84 µM.
To `CC(C)N=C(NS(=O)(=O)NC(=O)c1ccccc1)c1ccccc1` belongs > 42 µM (inactive); to `Cc1cc(C)cc(OC(=O)CS(=O)c2ccc(C(F)(F)F)cc2[N+](=O)[O-])c1` (stereo not given), 3.48 µM; to `CCOc1ccc(CN(C)C(C)C(=O)NCc2ccccc2)cc1` (stereo not given), > 42 µM (inactive).
Next, `COc1ccc(NC(=O)CCCc2ccccc2)cc1OC`: > 42 µM (inactive).
To `CCOC(=O)Cn1c(=O)n(Cc2ccco2)c(=O)c2ccc(C(=O)NCCc3ccccc3)cc21` belongs > 42 µM (inactive); to `O=C(N/N=C/c1ccc(Cl)s1)c1ccccc1[N+](=O)[O-]`, > 42 µM (inactive).
As to `CCc1ccc(NC(=S)N(Cc2cccc(Br)c2)CC2CCC(C(=O)O)CC2)cc1` (stereo not given), the AC50 is > 42 µM (inactive).
To `O=S1(=O)CC(N2CCCCC2)C(N2CCCCC2)C1` (stereo not given) belongs > 42 µM (inactive); to `COc1cc(/C=N/n2cnnc2)ccc1OCc1ccccc1`, > 42 µM (inactive).
Next, `COc1ccc(NC(=S)NC(=O)C2CCC2)cc1`: > 42 µM (inactive); `C=CCOc1ccccc1CN1CCCC(CCC(=O)N(C)CCc2ccccn2)C1` (stereo not given): > 21 µM (inactive).
For the molecule `O=C(c1cnn2c(C(F)(F)F)cc(-c3ccco3)nc12)N1CCCc2ccccc21`, the AC50 was > 42 µM (inactive).
Take `O=C(Nc1nc(-c2ccccn2)cs1)c1ccc2c(c1)OCCO2`: the AC50 was > 42 µM (inactive).
Next, `COc1ccc(C(=O)Nn2c(SCC(=O)NCc3ccccc3)nc3ccccc3c2=O)cc1`: > 42 µM (inactive); `COc1ccc(-c2cc(C(=O)Nc3cc(C)ccc3O)no2)cc1`: > 42 µM (inactive).
